Reference: US20260088124A1, “TRANSCRIPTOMIC CLOCKS OF BIOLOGICAL AGE AND LIFESPAN” (The Brigham and Women's Hospital, Inc., priority 2022, published 2026)

Columns and labels:
young UM-HET3 male mice = assay: Transcriptomic clock of expected maximum lifespan applied to liver and kidney of mice given compounds for 1 month; format: in vivo, mouse; conditions: 1 month treatment, data pooled across tissues, adjusted p-value <0.05, FIG. 6E
Excerpt: To examine if longevity of rodents can be predicted based on gene expression data, we used 1,030 liver samples of mice and rats with known maximum lifespan to construct transcriptomic clock of expected lifespan.
To test if the constructed clock can be used to identify new longevity interventions, we applied it to the liver and kidney samples obtained from young UM-HET3 male mice subjected to 25 different compounds for 1 month together with age-matched controls. These compounds were chosen using a CMAP platform^30 and gene expression signatures of longevity identified in our previous studies^31.

[1] = system: 25-month-old C57BL/6JNia mice; assay: Survival study of old mice with compound added to the diet; format: in vivo, mouse; conditions: compound added to diet from 25 months of age; log-rank p-value <0.05; FIGS. 6F-H
mouse tissues = assay: Change of biological age (tAge), lifespan-adjusted multi-tissue transcriptomic clock applied to RNAseq datasets of treated mice (ClockBase); format: in vivo; conditions: for effect on biological age (tAge) versus age-matched control mice: statistically significant effect on tAge, FIG. 6A
Excerpt: Preprocessing of the data prior to applying the clock included filtering of low-expressed genes using soft threshold (genes with less than 5 reads in more than 80% of samples were removed), mapping of gene IDs to the mouse Entrez IDs, RLE normalization (for RNA-seq data), log-transformation, scaling and ranking/YuGene transformation (optionally, for the corresponding clock models). Missing values corresponding to the clock genes not detected in the data were imputed with the average values precalculated during the training of the clock model.
Preprocessed gene expression profiles were used as an input for the clock, and tAges were returned by the model as an output. Differences between tAges of control and treated groups were assessed using linear regression model (for OSKM reprogramming datasets) and independent t-tests (for other applications). When multiple comparisons were assessed, obtained p-values were adjusted with Benjamini-Hochberg method.
To discover candidate interventions that slow down biological aging and extend mammalian lifespan and healthspan, we utilized ClockBase^25 and processed 1,349 publicly available RNAseq datasets corresponding to mouse tissues exposed to various pharmacological, dietary and genetic interventions. For every intervention, we used gene expression data to calculate tAges of subjected mice and compared them with tAges of age-matched control mice. […] In addition to the well-known lifespan-extending interventions, such as rapamycin, they included β3-adrenoceptor agonist CL 316,243^26,27 and the cardiac glycoside ouabain^28.

[2] = cited from earlier work
aged rodents = conditions: cited from earlier work
30-month-old mice = assay: Healthspan of old mice (gait speed, frailty index); format: in vivo, mouse

Molecule | predicted effect on expected (maximum) lifespan according to the transcriptomic longevity clock (young UM-HET3 male mice) | effect on biological age (tAge) versus age-matched control mice (mouse tissues) | further results
COc1ccc(-c2ccc3c(N4CCOC[C@@H]4C)nc(N4CCOC[C@@H]4C)nc3n2)cc1CO [AZD-8055] | predicted to be beneficial for mouse longevity | – | lifespan of old male mice (survival) [1]: significantly extended lifespan
interleukin 6: interleukin 6 injection | – | increase of biological age | –
Cc1onc(-c2ccccc2)c1-c1ccc(S(N)(=O)=O)cc1 [valdecoxib] | predicted to be beneficial for mouse longevity | – | –
C[C@@H]1O[C@@H](O[C@H]2C[C@@H](O)[C@]3(CO)[C@H]4[C@H](O)C[C@]5(C)[C@@H](C6=CC(=O)OC6)CC[C@]5(O)[C@@H]4CC[C@]3(O)C2)[C@H](O)[C@H](O)[C@H]1O [ouabain] | – | decrease in biological age | reduction of biological age (mouse tissues; 3-month treatment, 24-month-old mice, liver, FIG. 6B): ~20%; senolytic activity [2]: exhibit senolytic activity; physical function of aged rodents (aged rodents): improve physical function
COc1ccc(-c2ccc3c(N4CCOCC4)nc(N4C[C@@H](C)O[C@@H](C)C4)nc3n2)cc1CO [KU-0063794] | predicted to be beneficial for mouse longevity | – | lifespan of old male mice (survival) [1]: significantly extended lifespan; frailty index (30-month-old mice): decreased; gait speed (30-month-old mice): improved
CCCCCCCCCCCCCCCC(=O)OC[C@H](O)[C@H]1OC(=O)C(O)=C1O [ascorbyl-palmitate] | predicted to be beneficial for mouse longevity | – | –
C[C@H](Cc1ccc2c(c1)OC(C(=O)[O-])(C(=O)[O-])O2)NC[C@H](O)c1cccc(Cl)c1.[Na+].[Na+] [CL 316,243] | – | decrease in biological age | –
